In brackets after ≈: the same amount, converted by molar mass. Activity calls are given as the source filed them. The calls are words filed in the database; no cut-off is given here.
Experiments:
KB [1] = assay: Cytotoxicity against human KB cells; type: functional, cell-based
KB [2] = assay: Cytotoxicity against drug-resistant human KB cells in presence of vinblastine; type: functional, cell-based
Col2 = assay: Cytotoxicity against human Col2 cells; type: functional, cell-based
KB [3] = assay: Cytotoxicity against drug-resistant human KB cells in absence of vinblastine; type: functional, cell-based
[4] = biological target: Human immunodeficiency virus type 1 reverse transcriptase (Human immunodeficiency virus 1) (UniProt Q72547); assay: Inhibition of HIV1 reverse transcriptase
[5] = Cytotoxicity against human BC1 cells; type: functional, cell-based

- Activity [4]: inactive
SMILES: CC(C)=CCC1=C/C(=C(O)\C=C\c2ccc(O)cc2)C(=O)C(CC=C(C)C)(CC=C(C)C)C1=O [MUNCHIWARIN]
- IC50 (KB [1]): 11 µg/mL (≈ 23.9 µM)
- IC50 (KB [2]): 13 µg/mL
- IC50 (Col2): 9 µg/mL (≈ 19.5 µM)
- IC50 (KB [3]): 14 µg/mL (≈ 30.4 µM)
- IC50 [5]: 9 µg/mL (≈ 19.5 µM)

From ChEMBL document CHEMBL1150964, “Munchiwarin, a prenylated chalcone from crotalaria trifoliastrum” (J Nat Prod, 1998)
